Laboratory results: ChEMBL document CHEMBL3124855, “4'-Substituted pyrimidine nucleosides lacking 5'-hydroxyl function as potential anti-HCV agents” (Bioorg Med Chem Lett, 2014)

Assays:
[1] = test system: Hepatitis C virus; test: Antiviral activity against HCV subtype 1a infected in Huh-7 cells assessed as reduction in viral RNA level at 79.4 uM after 8 to 10 days by quantitative PCR analysis; type: functional, Hepacivirus hominis
[2] = Cytotoxicity against human HuH7 cells after 2 days by XTT assay; type: cell-based, Huh-7
[3] = Selectivity index, ratio of CC50 for human HuH7 cells to EC50 for HCV subtype 1a; set-up: species or system Huh-7
[4] = test system: Hepatitis C virus; test: Antiviral activity against HCV subtype 1a infected in Huh-7 cells assessed as reduction in viral RNA level after 8 to 10 days by quantitative PCR analysis; type: functional, organism-based, Hepacivirus hominis
[5] = test system: Hepatitis C virus; test: Antiviral activity against HCV subtype 1a infected in Huh-7 cells assessed as reduction in viral RNA level at 67.7 uM after 8 to 10 days by quantitative PCR analysis; type: functional, Hepacivirus hominis
[6] = test system: Hepatitis C virus; test: Antiviral activity against HCV subtype 1a infected in Huh-7 cells assessed as reduction in viral RNA level at 69.4 uM after 8 to 10 days by quantitative PCR analysis; type: functional, Hepacivirus hominis
[7] = test system: Hepatitis C virus; test: Antiviral activity against HCV subtype 1a infected in Huh-7 cells assessed as reduction in viral RNA level at 75.2 uM after 8 to 10 days by quantitative PCR analysis; type: functional, Hepacivirus hominis
[8] = test system: Hepatitis C virus; test: Antiviral activity against HCV subtype 1a infected in Huh-7 cells assessed as reduction in viral RNA level at 33.1 uM after 8 to 10 days by quantitative PCR analysis; type: functional, Hepacivirus hominis
[9] = test system: Hepatitis C virus; test: Antiviral activity against HCV subtype 1a infected in Huh-7 cells assessed as reduction in viral RNA level at 66.2 uM after 8 to 10 days by quantitative PCR analysis; type: functional, Hepacivirus hominis
[10] = test system: Hepatitis C virus; test: Antiviral activity against HCV subtype 1a infected in Huh-7 cells assessed as reduction in viral RNA level at 33.1 uM after 8 to 10 days by quantitative PCR analysis in presence of ribavirin; type: functional, Hepacivirus hominis
[11] = test system: Hepatitis C virus; test: Antiviral activity against HCV subtype 1a infected in Huh-7 cells assessed as reduction in viral RNA level at 71.4 uM after 8 to 10 days by quantitative PCR analysis; type: functional, Hepacivirus hominis
[12] = test system: Hepatitis C virus; test: Antiviral activity against HCV subtype 1a infected in Huh-7 cells assessed as reduction in viral RNA level at 35.6 uM after 8 to 10 days by quantitative PCR analysis; type: functional, Hepacivirus hominis
[13] = test system: Hepatitis C virus; test: Antiviral activity against HCV subtype 1a infected in Huh-7 cells assessed as reduction in viral RNA level at 84.4 uM after 8 to 10 days by quantitative PCR analysis; type: functional, Hepacivirus hominis
[14] = test system: Hepatitis C virus; test: Antiviral activity against HCV subtype 1a infected in Huh-7 cells assessed as reduction in viral RNA level at 69.7 uM after 8 to 10 days by quantitative PCR analysis; type: functional, Hepacivirus hominis
[15] = test system: Hepatitis C virus; test: Antiviral activity against HCV subtype 1a infected in Huh-7 cells assessed as reduction in viral RNA level at 69.6 uM after 8 to 10 days by quantitative PCR analysis; type: functional, Hepacivirus hominis
[16] = test system: Hepatitis C virus; test: Antiviral activity against HCV subtype 1a infected in Huh-7 cells assessed as reduction in viral RNA level at 72.9 uM after 8 to 10 days by quantitative PCR analysis; type: functional, Hepacivirus hominis
[17] = test system: Hepatitis C virus; test: Antiviral activity against HCV subtype 1a infected in Huh-7 cells assessed as reduction in viral RNA level at 41 uM after 8 to 10 days by quantitative PCR analysis; type: functional, Hepacivirus hominis
[18] = test system: Hepatitis C virus; test: Antiviral activity against HCV subtype 1a infected in Huh-7 cells assessed as reduction in viral RNA level at 81.9 uM after 8 to 10 days by quantitative PCR analysis; type: functional, Hepacivirus hominis
[19] = test system: Hepatitis C virus; test: Antiviral activity against HCV subtype 1a infected in Huh-7 cells assessed as reduction in viral RNA level at 83.3 uM after 8 to 10 days by quantitative PCR analysis; type: functional, Hepacivirus hominis

SMILES	CC50 at 48 h [2] [µM]	Ratio CC50/EC50 [3]	EC50 [4] [µM]	also measured
COC(=O)[C@@H]1C=C[C@H](n2cc(C)c(=O)[nH]c2=O)O1	> 992	>10	49.6	inhibition at 79.4 µM [1]: 58%
COC(=O)[C@H]1O[C@@H](n2cc(C)c(=O)[nH]c2=O)C[C@@H]1N=[N+]=[N-]	> 847	>10	33.9	inhibition at 67.7 µM [5]: 60%
COC(=O)[C@H]1O[C@@H](n2cc(C)c(=O)[nH]c2=O)[C@H](F)[C@@H]1O	> 868	>10	43.4	inhibition at 69.4 µM [6]: 56%
[N-]=[N+]=N[C@H]1C[C@H](n2ccc(=O)[nH]c2=O)O[C@@H]1C(N)=O	> 940	>10	–	inhibition at 75.2 µM [7]: 10%
CCc1cn([C@@H]2O[C@H](C(=O)OC)[C@@H](O)[C@@H]2F)c(=O)[nH]c1=O	> 829	>10	33.1	inhibition at 33.1 µM [8]: 50%; inhibition at 66.2 µM [9]: 65%; fractional inhibitory concentration index (FICI) [10]: 0.3
Cc1cn([C@H]2C[C@H](N=[N+]=[N-])[C@@H](C(N)=O)O2)c(=O)[nH]c1=O	> 893	>10	–	inhibition at 71.4 µM [11]: 10%
COC(=O)[C@H]1O[C@@H](n2cc(C)c(=O)[nH]c2=O)C[C@@H]1Cl	> 868	>10	43.4	inhibition at 69.4 µM [6]: 58%
COC(=O)[C@H]1O[C@@H](n2ccc(=O)[nH]c2=O)C[C@@H]1N=[N+]=[N-]	> 890	>10	35.6	inhibition at 35.6 µM [12]: 54%
Cc1cn([C@H]2CC=C(C(N)=O)O2)c(=O)[nH]c1=O	> 1060	>10	–	inhibition at 84.4 µM [13]: 20%
CCc1cn([C@@H]2O[C@H](C(N)=O)[C@@H](O)[C@@H]2F)c(=O)[nH]c1=O	> 871	>10	–	inhibition at 69.7 µM [14]: 20%
COC(=O)[C@H]1O[C@@H](n2ccc(=O)[nH]c2=O)[C@H](OC)[C@@H]1O	> 874	>10	69.6	inhibition at 69.6 µM [15]: 53%
COC(=O)C1=CC[C@H](n2cc(C)c(=O)[nH]c2=O)O1	> 992	>10	79.4	inhibition at 79.4 µM [1]: 50%
COC(=O)[C@H]1O[C@@H](n2ccc(=O)[nH]c2=O)[C@H](F)[C@@H]1O	> 912	>10	> 72.9	inhibition at 72.9 µM [16]: 43%
NC(=O)c1ncn([C@@H]2O[C@H](CO)[C@@H](O)[C@H]2O)n1 [RIBAVIRIN]	–	>10	–	inhibition at 41 µM [17]: 32%; inhibition at 81.9 µM [18]: 50%
COC(=O)[C@@H]1CC[C@H](n2ccc(=O)[nH]c2=O)O1	> 1040	>10	–	inhibition at 83.3 µM [19]: 0%
